Laboratory results from patent US10802012B2, “Optical cytometry to determine cell mass changes in response to a biologically active agent” (The Regents of the University of California, priority 2009, dated 2020).

What was measured:
[1] = system: fibroblasts; details: low doses (0.1-1 μM); cited from earlier work
[2] = system: NIH3T3 cells; assay: Cell morphology in intensity images during cytochalasin treatment; type: cell-based, mouse; details: 1 μM, up to 45 minutes
Description: (§1) Cells were prepared for measurement as described above. A continuous infusion of fresh media into the sample chamber, warmed to 37 C and pre-saturated with 5%CO2, was maintained at all times. The rate of infusion was 5 μL/min, equivalent to exchanging the entire volume of the test chamber in 20 minutes. Cells were equilibrated under flow for 45 minutes before measurement. Flow was halted during each measurement cycle, which lasted approximately 200 seconds. The first, a media-only measurement was conducted at 1 hour, immediately followed by introduction of cytochalasin B into the infusing media. Initially, the cytochalasin B was dissolved in DMSO and diluted in DMEM to produce a stock concentration 1000× the working concentration (1 μM or 10 μM). At the appropriate time, the stock solution was introduced into the infusion media reservoir to produce the desired final concentration.

[3] = system: fibroblasts; details: low doses (0.1-1 μM); cited from earlier work; remark: listed apart in the source
[4] = system: NIH3T3 cells; assay: Mechanical imaging interferometry (MII) viscoelastic measurement of cells before and after cytochalasin B; type: cell-based, mouse
Description: The population measurements of the NIH 3T3 fibroblasts and the HEK 293T […] were conducted over several consecutive days. Both cell types were cultured at the same time on a series of poly-L-lysine coated 0.20×10 mm round glass coverslips, in 1×DMEM with 10% fetal bovine serum in a laboratory incubator under standard cell culture conditions. Preceding measurement, a single round coverslip containing cells would be removed from the culture dish and quickly placed in the microscope test chamber. Microreflectors would be added to media from the original culture dish, which would then be pipetted slowly onto the cells and the sample chamber sealed. Cells were allowed to equilibrate in the test chamber for 30 minutes before measurement. The average radius of the measured microreflectors was 3.79 μm, and the average applied force was 190 pN. The average cell height was 8.1 μm and the average maximum indentation depth per cell was 660 nm.
The three constants for a viscoelastic solid were determined for each measurement by fitting the time-dependent force-displacement curves of the microreflectors to the following equation (see, e.g. Cheng et al., (2005) Mechanics of Materials 37, 213-226):
[formula] Our measurements assumed Poisson's ratio for the cell, v=0.5. Curves were fitted using the Levenberg-Marquardt non-linear least squares procedure (Origin Labs). The z-statistic was used to compare the log-transformed sample means and determine p values. The Bartlett test was used to confirm homogeneity of the compared sample variances.
To remain within the semi-infinite layer assumptions of this model, we present fits only for observations where the minimum cell thickness at the location of the microreflector was 3 μm or greater. A majority of the measurements fit the model elastic constants E1 and E2 well, having a relative standard error of fit <25%. There was larger uncertainty in the viscosity factor, η, with only 30% of the fits having a relative standard error <25%.
as §1

[5] = system: fibroblasts; details: low doses (0.1-1 μM); cited from earlier work; remark: listed apart in the source
[6] = NIH3T3 cells, 1 μM, matched individual cell basis
[7] = NIH3T3 cells, FIG. 6B, normal force applied for 100 seconds, before vs after treatment

## C=C1[C@@H](C)[C@H]2[C@H](Cc3ccccc3)NC(=O)[C@]23OC(=O)/C=C/[C@H](O)CCC[C@@H](C)C/C=C/[C@H]3[C@@H]1O [cytochalasin B]
[1]
  cell migration: inhibit cell migration
[2]
  change in cell morphology: only a slight change in cell morphology
[3]
  change in Young's modulus by AFM indentation: minimal, if any, measurable change in Young's modulus
[4]; NIH3T3 cells (n=30), 1 μM, before treatment 2.30, p=0.04
  mean of the log-transformed distribution of E2 (delayed elastic constant) after treatment: 2.02
[4]; NIH3T3 cells (n=30), 1 μM, before treatment 3.19, p=0.10
  mean of the log-transformed distribution of E1 (instantaneous elastic constant) after treatment: 2.92
[4]; NIH3T3 cells (n=30), 1 μM, before treatment 3.39, p=0.47
  mean of the log-transformed viscous constant η after treatment: 3.36
[4]; [6]
  matched individual cells with E1 lower after treatment: 10/13
  matched individual cells with E2 lower after treatment: 7/10
  matched individual cells with viscosity η lower after treatment: 6/11
[4]; [7]
  change in viscoelastic behavior, force-displacement curve of probe 1: appears to be unchanged
  change in viscoelastic behavior, force-displacement curve of probe 4: change in elastic rebound behavior
  change in viscoelastic behavior, force-displacement curves of probes 2 and 3: clear decrease in stiffness
[4]; NIH3T3 cells, low dose (1 μM)
  elasticity of treated cells: treated cells were less elastic
[5]
  changes in the morphology of fibroblasts: does not produce large changes in the morphology
